# Reference: patent US20260374794A1, “COMPOUNDS TARGETING MUTANT OF P53” (JACOBIO PHARMACEUTICALS CO., LTD., priority 2022, published 2026)
# Key:
# NUGC-3 (P53 Y220C) = assay: Cell viability assay (CellTiter-Glo); type: cell-based; conditions: Homo sapiens, 144 h, NUGC-3 cells, 6 days, 37 °C
# Description: Cells were collected and counted. A desired number of cells was seeded into 96-well microplate and cultured in 37 °C cell incubator overnight. Compounds dissolved in cell culture medium were added into cell plate and cultured for 6 days. After balancing CellTiter-Glo reagent and cells at room temperature for 30 min, equal volume of CellTiter-Glo reagents was added to assay plate and shaken for 2 min for cell lysis. The cells were balanced at room temperature for 10 minutes and Luminescence signal was read using Envision. The percent of cell viability for compounds treated wells were normalized between High control and low control. Wells containing cell culture medium and same percentage DMSO served as Low control. Wells containing cells and same percentage DMSO served as High control. Cell viability (%)=(Luminescence readoutCompound treated−Luminescence readoutLow control)/(Luminescence readoutHigh control−Luminescence readoutLow control)*100%. Then the data were analyzed either by fitting a 4-parameter logistic model or by Excel to calculate IC50 values. And the IC50 was the concentration at […] Cell viability on the curve.
# p53(Y220C) = molecular target: T1, p53(Y220C) (Homo sapiens, UniProt P04637, Y220C); assay: In vitro DNA binding assay (HTRF), His-p53 Y220C (94-294) with biotinylated p53 consensus DNA; type: biochemical; conditions: HTRF; 27 °C; His-p53 Y220C (94-294) 2.5 nM; biotinylated DNA 10 nM; normalized to 2 μM Ref-1a; EC50 = concentration at 50% Activation; read-out: p53(Y220C) EC50
# T1 construct: His-p53 Y220C (94-294) protein
# In short: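 His-p53 Y220C (94-294), 2.5 nM, preincubated with compound and anti-His-Tb cryptate 15 min at 25 °C then 60 min at 27 °C; 10 nM biotinylated consensus DNA with streptavidin-d2 added for 60 min more (HEPES pH 7.4, 75 mM KCl). HTRF 665/620 ratio, normalized to 2 μM Ref-1a high control; EC50 from 4-parameter fit.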
# p53(Y220C)_NUGC-3 = p53(Y220C)_NUGC-3 (Homo sapiens, UniProt P04637, Y220C); assay: Reporter gene assay (NUGC-3_P53_Luc cells); type: cell-based; conditions: 6 hours, 37 °C, luciferase, normalized to Ref-1a 10 μM, EC50 = concentration at 50% Activity, read-out: p53(Y220C)_NUGC-3 EC50
# Description: NUGC-3_P53_Luc single clonal cell line was established using pGL4.38[luc2P/p53 RE/Hygro] Vector (E365A, promega). NUGC-3_P53_Luc single clonal cells were cultured in 37 °C cell incubator before use. NUGC-3_P53_Luc cells were collected and washed twice with PBS to remove phenol red and then resuspended in medium to a proper concentration. Tested compound dilutions were transferred into 384 well assay plates (PerkinElmer). A desired number of cells was seeded into the assay plate and cultured for 6 hours at 37 °C cell incubator. Britelite plus Luciferase Assay Reagent were added into each well and the luminescence value was recorded on Envision. The percent of activity value of compounds treated wells was normalized between high control and low control. Wells containing cells and Ref-la (10 μM) served as high control, and wells containing cells and same percentage of DMSO served as low control. Activity value (%)=(Luminescence readoutCompound treated−Luminescence readoutLow control)/(Luminescence readoutHigh control−Luminescence readoutLow control)*100%. Then the data were analyzed either by fitting a 4-parameter logistic model or by Excel to calculate EC50 values and the EC50 was the concentration at 50% Activity on the curve.
compound,measurement,setting,value
"COc1cc([S@@](C)(=N)=O)ccc1NCC#Cc1sc2c(N[C@H]3CCN(C)C[C@H]3F)cccc2c1[C@@H](O)C(F)(F)F [Example 61, (S)-(4-((3-(7-(((3R,4S)-3-fluoro-1-methylpiperidin-4-yl)amino)-3-((R)-2,2,2-trifluoro-1-hydroxyethyl)benzo[b]thiophen-2-yl)prop-2-yn-1-yl)amino)-3-methoxyphenyl)(imino)(methyl)-16-sulfanone]",IC50,NUGC-3 (P53 Y220C),0.38 µM
same,EC50,p53(Y220C),0.036 µM
same,EC50,p53(Y220C)_NUGC-3,0.078 µM
